# Columns and labels:
# [1] = target: α5-GABAA receptor (α5, β3, γ2 subunits) (Homo sapiens (Human), UniProt P18507+P31644); experiment: Whole cell patch clamp, inverse agonist efficacy in HEK293 cells expressing α5-GABAA receptor; format: cell-based; settings: GABA 0.05 μM, −60 mV; for inhibition at 0.1 µM: HEK293, drug 100 nM, read-out: Compound inverse agonist efficacy %
# Excerpt: The inventors used electrophysiological methods to determine the inverse agonist efficacy of the drugs to be tested on the α5-GABAA receptor. The detailed methods are as follows:
# Different subunits of the GABAA receptor were co-expressed in the HEK293 cell line to construct a fully functional GABAA receptor. The α, β, and γ subunits are essential to form a complete functional GABAA receptor. In this example, the present disclosure had established the following cell model: α5 subunit (see GenBank Accession No.: NM_000810.3 for protein sequences), β3 subunit (see GenBank Accession No.: NM_000814.5 for protein sequences), and γ2 subunit (see GenBank Accession No.: NM_000816.3 for protein sequences) were co-expressed in the HEK293 cell line, followed by screening the monoclonal stably transfected cell line. This cell line expressed a fully functional α5-GABAA receptor.
# The monoclonal stably transfected HEK293 cell line expressing α5-GABAA receptor were cultured in 10 cm culture dishes and passaged when the cells grew to 80% to 90% confluent. During passaging, the culture medium was aspirated first, then 3 mL of DPBS phosphate buffer salt (Gibco™) was added to the culture dishes, and the culture dishes were shaken slightly, and DPBS was aspirated. 1 mL of trypsin (TrypLE Express, Gibco™) was added thereto, and the cells were digested at 37° C. for 1-2 minutes. Then 3 mL of complete medium (DMEM+10% FBS (Gibco™)) was added and the cells at the bottom of the culture dishes were dispersed. The cell suspension was transferred to a 15 mL centrifugal tube (Corning) and then centrifuged at 200 g for 3 minutes. The supernatant was discarded, 4 mL of complete medium was added, and the cells were gently blown and resuspended for use. If cell passaging was performed, the cell suspension was diluted at a ratio of 1:5 or 1:10. If cells for electrophysiological detection were prepared, the cell suspension was diluted in a ratio of 1:12, then added into a 24-well dish (Corning™) in which glass slides were placed and pretreated with Poly-D-Lysine, and the experiment was carried out after the cells adhered to the wall. The cells used for electrophysiology was cultured no more than 48 hours.
# Drug concentration setting: The final drug concentration used in drug screening was 100 nM, and the GABA concentration was 0.05 μM. The whole cell patch clamp technique was used in electrophysiological assays, which could refer to the literature (I. Lecker, Y. Yin, D. S. Wang and B. A. Orser, British Journal of Anaesthesia, 2013, 110 (Si), i73-i81). The compositions of the extracellular solution for electrophysiology assay were as follows: 150 mM NaCl, 5 mM KCl, 2.5 mM CaCl2, 1 mM MgCl2, 10 mM HEPES, and 10 mM glucose (pH 7.4); the formulation of the electrode internal fluid for electrophysiology use was as follows: 140 mM CsCl, 11 mM EGTA, 10 mM HEPES, 2 mM CaCl2, 1 mM MgCl2, 4 mM MgATP, and 2 mM TEA (pH 7.3). The signal acquisition used an EPC-10 amplifier and the PatchMaster software (HEKA) or Axon700B amplifier and Clampex software (AXON). The recording electrode was pulled from borosilicate glass, and the electrode resistance was 4 to 6 MQ. The ALA-VC-8PG™ system was used for drug application. Single cell that grew independently was selected for recording. During recording, the cell membrane potential was clamped at −60 mV. During experiment, an extracellular solution was applied outside the cells for about 20 seconds. When the baseline reached to a stable state, the extracellular solution was switched to the GABA solution to induce an inward current. After about 20 to 40 seconds until the current was stable, the solution was switched to a corresponding drug solution to detect the effect of the drug. At last, the solution was switched to the extracellular solution, and the experiment was terminated when the baseline returned to the level before drug application. […]
# [2] = target: human α5β3γ2 receptors (α5-GABAA receptor) (Homo sapiens (Human), UniProt P18507+P31644); experiment: 3H-flunitrazepam competition binding, human α5β3γ2 GABAA receptor; settings: HEK293 cell membranes, 1 nM 3H-flunitrazepam; read-out: α5-GABAAR Ki
# How it was run: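 Radioligand displacement of 1 nM 3H-flunitrazepam from membranes of HEK293 lines stably expressing the human subtypes, 1 h at room temperature, compound in 8-point 4-fold series. Bound label on GF/C filters counted by scintillation; Ki derived from fitted IC50, with flumazenil as low control.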
SMILES,inhibition at 0.1 µM [1] [%],Ki [2] [nM],Compound inverse agonist efficacy % ([1]; drug 100 nM) [%]
"Cc1nnn(-c2ccc(C(F)F)cc2)c1COc1ccc(N2CCN3CC(C(C)(C)C)NC(=O)[C@@H]3C2)nn1 (single isomer, unassigned) [Example 201]",53.9,1.74,
"Cc1nnn(-c2ccc(C(F)F)cc2)c1COc1ccc(N2CCN3CC(CC(C)C)NC(=O)[C@@H]3C2)nn1 (single isomer, unassigned) [Example 208]",55.9,1.96,
"Cc1nnn(-c2ccc(C(F)F)cc2)c1COc1ccc(N2CCN3CC(CC(C)C)NC(=O)[C@@H]3C2)nn1 (single isomer, unassigned) [Example 209]",,2.04,−52.08
"Cc1nnn(-c2ccc(C(F)F)cc2)c1COc1ccc(N2CCN3CC(c4cnn(C)c4)NC(=O)[C@@H]3C2)nn1 (single isomer, unassigned) [Example 210]",47.6,2.79,
"Cc1nnn(-c2ccc(C(F)F)cc2)c1COc1ccc(N2CCN3CCOC[C@@H]3C2)nn1 [Example 13, (S)-8-(6-((1-(4-(Difluoromethyl)phenyl)-4-methyl-1H-1,2,3-triazol-5-yl)methoxy)pyridazin-3-yl)octahydropyrazino[2,1-c][1,4]oxazine]",43.3,2.2,
"Cc1nnc([C@@H]2CN(c3ccc(OCc4c(C)nnn4-c4ccc(C(F)F)cc4)nn3)CCN2)o1 [Example 34, (S)-2-(4-(6-((1-(4-(Difluoromethyl)phenyl)-4-methyl-1H-1,2,3-triazol-5-yl)methoxy)pyridazin-3-yl)piperazin-2-yl)-5-methyl-1,3,4-oxadiazole]",42.2,7.08,
"Cc1nnn(-c2ccc(C(F)F)cc2)c1COc1ccc(N2CC(C(=O)NC3COC3)C2)nn1 [Example 45, 1-(6-((1-(4-(Difluoromethyl)phenyl)-4-methyl-1H-1,2,3-triazol-5-yl)methoxy)pyridazin-3-yl)-N-(oxetan-pyridin-3-yl)azetidine-3-carboxamide]",50.8,3.26,
"Cc1nnn(-c2ccc(C(F)F)cc2)c1COc1ccc(N2CC(C(=O)NC3CCN(C)CC3)C2)nn1 [Example 46, 1-(6-((1-(4-(Difluoromethyl)phenyl)-4-methyl-1H-1,2,3-triazol-5-yl)methoxy)pyridazin-3-yl)-N-(1-methylpiperidin-4-yl)azetidine-3-carboxamide]",41.8,1.91,
"Cc1nnn(-c2ccc(C(F)F)cc2)c1COc1ccc(N2CC(C(=O)NC3CCOCC3)C2)nn1 [Example 50, 1-(6-((1-(4-(Difluoromethyl)phenyl)-4-methyl-1H-1,2,3-triazol-5-yl)methoxy)pyridazin-3-yl)-N-(tetrahydro-2H-pyran-4-yl)azetidine-3-carboxamide]",41.5,6.43,
"Cc1nnn(-c2ccc(C(F)F)cc2)c1COc1ccc(N2CCN(CCN)C(=O)C2)nn1 [Example 67, 1-(2-Aminoethyl)-4-(6-((1-(4-(difluoromethyl)phenyl)-4-methyl-1H-1,2,3-triazol-5-yl)methoxy)pyridazin-3-yl)piperazin-2-one]",50.1,,

# More lines, now with the values ahead:
inhibition at 0.1 µM [1] [%],Ki [2] [nM],Compound inverse agonist efficacy % ([1]; drug 100 nM) [%],SMILES
48.4,2.4,,"Cc1nnn(-c2ccc(C(F)F)cc2)c1COc1ccc(N2CC[C@H]3CCNC(=O)[C@@H]3C2)nn1 (relative stereo) [Example 124, trans-7-(6-((1-(4-(Difluoromethyl)phenyl)-4-methyl-1H-1,2,3-triazol-5-yl)methoxy)pyridazin-3-yl)octahydro-2,7-naphthyridin-1(2H)-one]"
50.8,1.99,,"Cc1nnn(-c2ccc(C(F)F)cc2)c1COc1ccc(N2CCN3CC(C4CC4)NC(=O)[C@@H]3C2)nn1 (single isomer, unassigned) [Example 203]"
40.8,1.28,,"Cc1nnn(-c2ccc(C(F)F)cc2)c1COc1ccc(N2CCNC(=O)CC2)nn1 [Example 3, 1-(6-((1-(4-(Difluoromethyl)phenyl)-4-methyl-1H-1,2,3-triazol-5-yl)methoxy)pyridazin-3-yl)-1,4-diazepan-5-one]"
49.1,0.58,,"Cc1nnn(-c2ccc(C(F)F)cc2)c1COc1ccc(N2CCNC(=O)C2C)nn1 (stereo not shown) [Example 11, 4-(6-((1-(4-(Difluoromethyl)phenyl)-4-methyl-1H-1,2,3-triazol-5-yl)methoxy)pyridazin-3-yl)-3-methylpiperazin-2-one]"
51.5,2.13,,"Cc1nnn(-c2ccc(C(F)F)cc2)c1COc1ccc(N2CCC2=O)nn1 [Example 18, 1-(6-((1-(4-(Difluoromethyl)phenyl)-4-methyl-1H-1,2,3-triazol-5-yl)methoxy)pyridazin-3-yl)azetidin-2-one]"
51.2,1.97,,"Cc1nnn(-c2ccc(C(F)F)cc2)c1COc1ccc(N2CCCC2=O)nn1 [Example 20, 1-(6-((1-(4-(Difluoromethyl)phenyl)-4-methyl-1H-1,2,3-triazol-5-yl)methoxy)pyridazin-3-yl)pyrrolidin-2-one]"
47.7,4.31,,"Cc1nnn(-c2ccc(C(F)F)cc2)c1COc1ccc(N2CCN[C@@H](C(=O)O)C2)nn1 [Example 28, (R)-4-(6-((1-(4-(Difluoromethyl)phenyl)-4-methyl-1H-1,2,3-triazol-5-yl)methoxy)pyridazin-3-yl)piperazine-2-carboxylic acid]"
41.9,2.72,,"CNC(=O)[C@@H]1CN(c2ccc(OCc3c(C)nnn3-c3ccc(C(F)F)cc3)nn2)CCN1 [Example 30, (S)-4-(6-((1-(4-(Difluoromethyl)phenyl)-4-methyl-1H-1,2,3-triazol-5-yl)methoxy)pyridazin-3-yl)-N-methylpiperazine-2-carboxamide]"
52.8,9.03,,"Cc1nnn(-c2ccc(C(F)F)cc2)c1COc1ccc(N2CCO[C@H](C(=O)O)C2)nn1 [Example 35, (S)-4-(6-((1-(4-(Difluoromethyl)phenyl)-4-methyl-1H-1,2,3-triazol-5-yl)methoxy)pyridazin-3-yl)morpholine-2-carboxylic acid]"
49,13.6,,"Cc1nnn(-c2ccc(C(F)F)cc2)c1COc1ccc(N2CC(=O)N[C@H](C(=O)O)C2)nn1 [Example 36, (S)-4-(6-((1-(4-(Difluoromethyl)phenyl)-4-methyl-1H-1,2,3-triazol-5-yl)methoxy)pyridazin-3-yl)-6-oxopiperazine-2-carboxylic acid]"
50.6,12.3,,"Cc1nnn(-c2ccc(C(F)F)cc2)c1COc1ccc(N2CC(C(=O)O)C2)nn1 [Example 37, 1-(6-((1-(4-(Difluoromethyl)phenyl)-4-methyl-1H-1,2,3-triazol-5-yl)methoxy)pyridazin-3-yl)azetidine-3-carboxylic acid]"
49.6,2.31,,"Cc1nnn(-c2ccc(C(F)F)cc2)c1COc1ccc(N2CC(C(=O)NC3CC3)C2)nn1 [Example 44, N-Cyclopropyl-1-(6-((1-(4-(difluoromethyl)phenyl)-4-methyl-1H-1,2,3-triazol-5-yl)methoxy)pyridazin-3-yl)azetidine-3-carboxamide]"

# — US20250136581A1, “SUBSTITUTED TRIAZOLE DERIVATIVE, PREPARATION METHOD THEREFOR, PHARMACEUTICAL COMPOSITION THEREOF, AND USE THEREOF” (SHANGHAI SIMR BIOTECHNOLOGY CO., LTD., priority 2021, published 2025)
